Reference: article PMC12147714 (FEMS Microbiology Letters, 2025)

Tests used:
[1] = test system: PAO1 TnoprD producing VIM-1; assay: MIC and checkerboard by broth microdilution, recombinant strain; assay type: cell-based, Pseudomonas aeruginosa; conditions: VIM-1 TnoprD; antibiotic alone
Method: (§1) The fractional inhibitory concentration index (FICI) was calculated and interpreted as follows: the MIC of drug A in combination/the MIC of drug A alone + the MIC of drug B in combination/the MIC drug B alone. FICI ≤ 0.5 = synergy; 0.5 < FICI ≤ 1 = additive; FICI 1 < FICI < 2 = indifference, and FICI ≥ 2 = antagonism. All susceptibility testing/checkerboard assays were performed in triplicate.

PAO1 producing NDM-1 = assay: as above; assay type: cell-based, Pseudomonas aeruginosa; conditions: antibiotic alone
Method: as §1

[2] = test system: PAO1 TnoprD producing NDM-1; assay: as above; assay type: cell-based, Pseudomonas aeruginosa; conditions: NDM-1 TnoprD; antibiotic alone
Method: as §1

PAO1 producing IMP-10 = assay: as above; assay type: cell-based, Pseudomonas aeruginosa; conditions: antibiotic alone
Method: as §1

[3] = test system: PAO1 TnoprD producing IMP-1; assay: as above; assay type: cell-based, Pseudomonas aeruginosa; conditions: IMP-1 TnoprD; antibiotic alone
Method: as §1

[4] = test system: PAO1 TnoprD producing IMP-13; assay: as above; assay type: cell-based, Pseudomonas aeruginosa; conditions: IMP-13 TnoprD; antibiotic alone
Description: (§2) Pseudomonas aeruginosa isolate, PAO1, was used alongside its isogenic counterpart, PAO1 TnoprD, which lacks a functional OprD porin (Held et al. [2012]). β-lactamases, blaIMP-1, blaIMP-10, blaIMP-13, blaNDM-1, blaSPM-1, blaVIM-1, blaVIM-2, and blaKPC-2, had previously been cloned into the pUCP24 shuttle vector (Bouvier et al. [2025]), and were transformed by electroporation into both PAO1 and PAO1 TnoprD.
as §1, with “. MICs of DMSA, CAZ, FEP and checkerboards for the combinations, CAZ/DMSA and FEP/DMSA, were performed for all clinical isolates. All susceptibility testing results were interpreted according to CLSI guidelines (CLSI [2023]). The” for “The”

PAO1 producing VIM-1 = assay: as above; assay type: cell-based, Pseudomonas aeruginosa; conditions: antibiotic alone
Description: as §2
as §1, with “. MICs of DMSA, CAZ, FEP and checkerboards for the combinations, CAZ/DMSA and FEP/DMSA, were performed for all clinical isolates. All susceptibility testing results were interpreted according to CLSI guidelines (CLSI [2023]). The” for “The”

[5] = test system: PAO1 TnoprD producing SPM-1; assay: as above; assay type: cell-based, Pseudomonas aeruginosa; conditions: SPM-1 TnoprD; antibiotic alone
Description: as §2
as §1, with “. MICs of DMSA, CAZ, FEP and checkerboards for the combinations, CAZ/DMSA and FEP/DMSA, were performed for all clinical isolates. All susceptibility testing results were interpreted according to CLSI guidelines (CLSI [2023]). The” for “The”

[6] = test system: PAO1 TnoprD producing IMP-10; assay: as above; assay type: cell-based, Pseudomonas aeruginosa; conditions: IMP-10 TnoprD; antibiotic alone
Description: as §2
as §1, with “. MICs of DMSA, CAZ, FEP and checkerboards for the combinations, CAZ/DMSA and FEP/DMSA, were performed for all clinical isolates. All susceptibility testing results were interpreted according to CLSI guidelines (CLSI [2023]). The” for “The”

PAO1 producing VIM-2 = assay: as above; assay type: cell-based, Pseudomonas aeruginosa; conditions: antibiotic alone
Description: as §2
as §1, with “. MICs of DMSA, CAZ, FEP and checkerboards for the combinations, CAZ/DMSA and FEP/DMSA, were performed for all clinical isolates. All susceptibility testing results were interpreted according to CLSI guidelines (CLSI [2023]). The” for “The”

[7] = test system: PAO1 TnoprD producing VIM-2; assay: as above; assay type: cell-based, Pseudomonas aeruginosa; conditions: VIM-2 TnoprD; antibiotic alone
Description: as §2
as §1, with “. MICs of DMSA, CAZ, FEP and checkerboards for the combinations, CAZ/DMSA and FEP/DMSA, were performed for all clinical isolates. All susceptibility testing results were interpreted according to CLSI guidelines (CLSI [2023]). The” for “The”

PAO1 producing IMP-1 = assay: as above; assay type: cell-based, Pseudomonas aeruginosa; conditions: antibiotic alone
Description: as §2
as §1, with “. MICs of DMSA, CAZ, FEP and checkerboards for the combinations, CAZ/DMSA and FEP/DMSA, were performed for all clinical isolates. All susceptibility testing results were interpreted according to CLSI guidelines (CLSI [2023]). The” for “The”

PAO1 producing SPM-1 = assay: as above; assay type: cell-based, Pseudomonas aeruginosa; conditions: antibiotic alone
Description: as §2
as §1, with “. MICs of DMSA, CAZ, FEP and checkerboards for the combinations, CAZ/DMSA and FEP/DMSA, were performed for all clinical isolates. All susceptibility testing results were interpreted according to CLSI guidelines (CLSI [2023]). The” for “The”

PAO1 producing IMP-13 = assay: as above; assay type: cell-based, Pseudomonas aeruginosa; conditions: antibiotic alone
Description: as §2
as §1, with “. MICs of DMSA, CAZ, FEP and checkerboards for the combinations, CAZ/DMSA and FEP/DMSA, were performed for all clinical isolates. All susceptibility testing results were interpreted according to CLSI guidelines (CLSI [2023]). The” for “The”

IMP-10 = IMP-10 (Serratia marcescens, UniProt P52699, V49F); assay: IC50, inhibition of cephalothin hydrolysis by crude extract; conditions: IMP-10; 100 μM cephalothin, pH 7.0
IMP-10, sequence (P52699 19-246 V49F): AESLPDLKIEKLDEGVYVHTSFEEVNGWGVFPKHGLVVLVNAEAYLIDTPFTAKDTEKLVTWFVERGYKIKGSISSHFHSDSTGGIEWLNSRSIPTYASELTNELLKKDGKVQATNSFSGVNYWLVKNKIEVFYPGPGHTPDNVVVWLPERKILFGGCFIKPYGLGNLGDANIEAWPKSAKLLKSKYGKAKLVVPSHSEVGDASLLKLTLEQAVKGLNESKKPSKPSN

[8] = test system: MBL-producers in isogenic strains of P. aeruginosa; parameters: method as in Bouvier et al. 2025; conditions: ref Bouvier et al. 2025, cited from earlier work
MBL-producing E. coli = conditions: high concentrations, ref Cheminet et al. 2020, cited from earlier work
VIM-1 = VIM-1 (Pseudomonas aeruginosa, UniProt A0A0F7KYQ8); assay: IC50, inhibition of cephalothin hydrolysis by crude extract; conditions: VIM-1; 100 μM cephalothin, pH 7.0
VIM-2 = VIM-2 (Escherichia coli, UniProt Q5U7L7); assay: as above; conditions: VIM-2; 100 μM cephalothin, pH 7.0
[9] = parameters: method as in van Eijkeren et al. 2016; conditions: 30 mg/kg dose; ref van Eijkeren et al. 2016; cited from earlier work
NDM-1 = NDM-1 (Klebsiella pneumoniae, UniProt C7C422); assay: IC50, inhibition of cephalothin hydrolysis by crude extract; conditions: 100 μM cephalothin, pH 7.0
NDM-1, sequence (C7C422 29-270 limits assumed): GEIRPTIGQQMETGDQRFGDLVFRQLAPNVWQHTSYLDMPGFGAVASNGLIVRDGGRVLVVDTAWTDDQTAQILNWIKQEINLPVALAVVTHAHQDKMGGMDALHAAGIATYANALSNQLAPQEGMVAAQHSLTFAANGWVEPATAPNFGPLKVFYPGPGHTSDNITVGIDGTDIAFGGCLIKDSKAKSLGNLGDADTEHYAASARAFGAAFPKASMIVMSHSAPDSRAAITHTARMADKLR

SPM-1 = SPM-1 (Pseudomonas aeruginosa, UniProt Q8G9Q0); assay: as above; conditions: SPM-1; 100 μM cephalothin, pH 7.0
SPM-1, sequence (Q8G9Q0 entry or part of it): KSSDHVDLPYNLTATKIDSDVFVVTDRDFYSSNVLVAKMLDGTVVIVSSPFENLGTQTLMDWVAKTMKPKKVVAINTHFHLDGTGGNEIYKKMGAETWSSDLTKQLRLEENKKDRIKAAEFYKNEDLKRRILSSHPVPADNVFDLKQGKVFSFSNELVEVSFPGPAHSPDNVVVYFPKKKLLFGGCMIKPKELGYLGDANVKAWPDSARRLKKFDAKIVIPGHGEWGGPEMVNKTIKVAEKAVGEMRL

IMP-13 = IMP-13 (Pseudomonas aeruginosa, UniProt Q7WYA8); assay: as above; conditions: IMP-13; 100 μM cephalothin, pH 7.0
IMP-13, sequence (Q7WYA8 21-246): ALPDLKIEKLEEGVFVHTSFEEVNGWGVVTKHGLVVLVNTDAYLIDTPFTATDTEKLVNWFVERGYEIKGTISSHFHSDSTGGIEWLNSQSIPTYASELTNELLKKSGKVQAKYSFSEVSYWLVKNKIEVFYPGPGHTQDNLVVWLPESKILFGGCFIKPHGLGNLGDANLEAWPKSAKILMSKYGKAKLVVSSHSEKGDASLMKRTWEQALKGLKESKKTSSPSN

`CC(C)(O/N=C(\C(=O)N[C@@H]1C(=O)N2C(C(=O)[O-])=C(C[n+]3ccccc3)CS[C@H]12)c1csc(N)n1)C(=O)O` [CAZ, ceftazidime] gave an MIC [1] of 2050 µg/mL, an MIC (PAO1 producing NDM-1) of 4100 µg/mL and an MIC [2] of 4100 µg/mL. For the same molecule, the MIC (PAO1 producing IMP-10) was 2050 µg/mL, the MIC [3] was 1020 µg/mL and the MIC [4] was 64 µg/mL. It also gave an MIC (PAO1 producing VIM-1) of 2050 µg/mL, an MIC [5] of 512 µg/mL and an MIC [6] of 2050 µg/mL. For the same molecule, the MIC (PAO1 producing VIM-2) was 8 µg/mL, the MIC [7] was 8 µg/mL and the MIC (PAO1 producing IMP-1) was 1020 µg/mL. For the same molecule, the MIC (PAO1 producing SPM-1) was 512 µg/mL and the MIC (PAO1 producing IMP-13) was 64 µg/mL.
In the case of `O=C(O)[C@@H](S)[C@@H](S)C(=O)O` [DMSA, meso-dimercaptosuccinic acid], the IC50 (IMP-10) is given as 50 µM, the “effect on carbapenem (IPM and MEM) MICs” value ([8]; DMSA at 3 mM) is given as “significantly reduce” and the “type of interaction with carbapenems” value [8] is given as “additive”. The “efficacy in mouse peritonitis model” value (MBL-producing E. coli; MBL-producing E. coli) was “effective”, the “tolerability in mouse peritonitis model” value (MBL-producing E. coli) was “well-tolerated” and the IC50 (VIM-1) was greater than 1000 µM. The IC50 (VIM-2) was greater than 1000 µM, the tolerability [9] was “well tolerated” and the IC50 (NDM-1) was greater than 1000 µM. It also gave an IC50 (SPM-1) greater than 1000 µM and an IC50 (IMP-13) of 350 µM.
